Tests used:
animals = animals without drug withdrawal or chronic stress; low dose fluoxetine; cited from earlier work
BALB/cJ mice = assay: Prepulse inhibition of startle; type: in vivo, mouse
Protocol: For chronic fluoxetine studies in BALB/cJ mice, 60 male BALB/cJ mice were tested in the OF for 30 min on days 19 or 20 of chronic fluoxetine treatment. Mice were then pretested and tested in the modified FST on days 21 and 22, respectively. Animals were then allowed to adapt to being singly housed, and were trained for NIH on days 25-27. Home cage and novel cage testing occurred on days 28 and 29, respectively. Mice were then assessed for PPI on days 34 or 35.
Studies of subchronic fluoxetine were conducted using separate groups of 60 male BALB/cJ mice to prevent fluoxetine treatment from exceeding one week. One group was tested in the OF after one day of subchronic fluoxetine treatment. Mice were then pretested after 6 and tested after 7 days of subchronic fluoxetine treatment in the modified FST. A second group of BALB/cJ mice began fluoxetine treatment after being singly housed. They were then tested in the NIH test after 4 (home) and 5 (novel) days of subchronic fluoxetine treatment. A third group was tested for PPI after one or two days of subchronic fluoxetine treatment.
Prepulse Inhibition: Startle experiments were performed in MED-Associates chambers. Nonrestrictive Plexiglas cylinders 5 cm in diameter rested on a Plexiglas platform with a transducer amplifier. The sound-dampening isolation chambers were ventilated, well-lit, and equipped with an acoustic stimulator. Data acquisition was performed using Med-Associates software.
Five different trial types were presented in the test session: a 40-msec broadband 120 dB burst (PULSE ALONE trial); three different PREPULSE+PULSE trials in which 20-msec long 3 dB (pp3), 6 dB (pp6), or 12 dB (pp12) stimuli above a 70 dB background preceded the 120 dB pulse by 100 msec (onset to onset), and a NO STIMULUS trial, in which only the background noise was presented. Trials were presented in a pseudo-random order. A variable interval of 10-20 seconds separated trials.
The test session consisted of 62 test trials. The session began with a 10 min acclimation period, followed by four consecutive blocks of test trials. Blocks one and four consisted of six consecutive PULSE ALONE trials, while blocks two and three contained six PULSE ALONE trials, five pp3+p120 trials, five pp6+p120 trials, five pp12+p120 trials, and four NO STIMULUS trials. Analyses were performed using average values for each trial type.
Prepulse Inhibition: PPI was calculated as the averaged startle magnitude caused by PULSE ALONE trials from blocks two and three, minus the averaged startle magnitude caused by the prepulse-pulse trials, all divided by the averaged PULSE ALONE values from blocks two and three. The resulting value was multiplied by 100 and presented as a percent PPI value. Four-factor ANOVAs with fluoxetine and RU24969 as between subjects factors and prepulse intensity and block as within subjects variables assessed percent PPI levels. Interactions were resolved using post-hoc ANOVAs with adjusted p-values, and/or Newman-Keuls post-hoc tests.

| SMILES | intracranial self-stimulation reward thresholds (animals) | PPI (BALB/cJ mice; 10 mg/kg RU24969 in mice treated subchronically with fluoxetine (1-2 days)) | Startle reactivity (blocks two and three) (BALB/cJ mice; 10 mg/kg/day RU24969, chronic fluoxetine study) | PPI (BALB/cJ mice; acute 10 mg/kg RU24969 i.p. in control mice (no fluoxetine), 3, 6, 12 dB prepulse intensities) | startle reactivity in the second and third blocks (BALB/cJ mice; subchronic fluoxetine study (1-2 days), 10 mg/kg RU24969) |
| --- | --- | --- | --- | --- | --- |
| CNCCCN1c2ccccc2CCc2ccccc21 [desmethylimipramine] | no effect | – | – | – | – |
| COc1ccc2[nH]cc(C3=CCNCC3)c2c1 [RU24969, 5-methoxy-3(1,2,3,6)tetrahydropyridin-4-yl-1H-indole] | – | disrupted PPI at each prepulse intensity | increased overall | disrupted PPI in control mice | no effects |

From US20050186137A1, “Novelty-induced hypophagia-based assays for identifying agents to treat anxiety and depression” (priority 2003, published 2005)
